Data on one molecule can be found in patent US20260060947A1 (INSTITUT PASTEUR DE MONTEVIDEO, priority 2019, published 2026).

The test system of assay [1] is NF-κB-p65. Nature of the assay: LPS-induced NF-κB-p65 nuclear translocation in BV2 cells (immunocytochemistry). It counts as cell-based, murine. To be noted: BANA 10, 20, 30 μM, BA 30 μM or DMF for 3 hrs before LPS 100 ng/ml. The method, then:
The effect of BANA on nuclear translocation of NF-κB was studied by immunocytochemistry using murine microglia cell line BV2.
Cells were then treated with BANA (10, 20 and 30 μM) or B.A (30 μM) for 3 hrs. After treatment, cells were stimulated with LPS (100 ng/ml) for 30 minutes. Then, cells were washed and fixed with PFA 4% for 20 minutes at 4° C. and washed with PBS. Immunocytochemistry was performed as follows: cells were permeabilized using 0.5% Triton in PBS for 15 minutes, and then blocked using 5% of BSA for 1 h at room temperature. Rabbit anti-NF-κB-p65 (ab16502, 1/200) and mouse anti-CD11b (BD550219, 1/100) were incubated overnight at 4° C. After that, primary antibodies were removed, washed with PBS 3 times for 10 minutes, and Alexa-fluor-conjugated goat anti-rabbit or goat anti-mouse antibodies (1:1000) were incubated for 2 h at room temperature. After secondary antibodies were removed, cells were covered in glycerol mounting medium with 1/2000 DAPI staining. Cells were analyzed by confocal microscopy using a confocal ZEISS LSM 800. NF-κB-p65+ nuclei were counted and ratio of DAPI to NF-κB-p65 labeling was compared among groups. Data were analyzed using analyzing tools of ImageJ and GraphPad Prism 7 software.

The test system of assay [2] is NF-κB-p65. The assay can be described thus: LPS-induced NF-κB-p65 nuclear translocation in SOD1^G93A primary microglia. To be noted: BANA 10-30 μM before LPS. It counts as cell-based, rat. The method, then:
FIG. 8D: Confocal images show CD11b-positive SOD1^G93A primary microglia (grey) treated with BANA, BA or vehicle, before LPS stimulation. […] Nuclear NF-κB-p65 colocalizing with DAPI nuclear staining is denoted in yellow.
Nuclear NF-κB-p65 colocalizing with DAPI nuclear staining is denoted in yellow. […] Scale bar=20 μm. […] 2 replicates of 3 independent experiments.
The effects of BANA on LPS- or TNFα-induced NF-κB activation were also assayed in cell cultures of BV2 microglial cell line and primary adult microglia isolated from symptomatic SOD1^G93A rats, and HT-29 NF-κB reporter cell line, respectively.

For a further assay, the system named is NLRP3 inflammasome. The assay can be described thus: Inflammasome activation in THP-1 cells (LPS and ATP), IL-1β ELISA. It counts as cell-based, Human. To be noted: 30 μM, in first or second signal (LPS and ATP), compared with vehicle. The method, then:
The effect of BANA or BA over NF-κB-dependent gene expression was studied by qPCR using THP-1 cells. THP-1 cells were differentiated into macrophages and treated with BANA (30 μM) or BA (30 μM) for 2 hs, followed by stimulation with LPS (100 ng/mL, for 3-4 h).
For inflammasome activation, THP-1 cells were treated with LPS (as above) followed by exposure to ATP (5 mM, 45 min). IL-1β in the supernatant was then measured by ELISA (B&D OptEIA TM, San Diego, CA, USA).
In general terms: In an ELISA, binding on a coated surface is turned into a signal by an enzyme label.

Take `O=C(O)c1ccccc1` [benzoic acid, reference compound]: the “LPS-induced NF-κB-p65 nuclear translocation” value with NF-κB-p65 [1] and with NF-κB-p65 [2] was “devoid of inhibitory effect” throughout. In the assay on NLRP3 inflammasome, the “release of IL-1β” value was “devoid of anti-inflammatory effects”.
